Legend:
[1] = target: T1, phosphorylated Axl (pAxl Y702) in NCI-H1299 cells (Homo sapiens, UniProt P30530); experiment: Intracellular Axl Phosphorylation Inhibitory Activity (pAxl, NCI-H1299 cells); type: cell-based; conditions: 1 h compound incubation, GAS6 stimulation 10 minutes, pAxl (Y702) level
T1 construct: endogenous in cells; host or cells: NCI-H1299
T1 sequence (P30530 26-894): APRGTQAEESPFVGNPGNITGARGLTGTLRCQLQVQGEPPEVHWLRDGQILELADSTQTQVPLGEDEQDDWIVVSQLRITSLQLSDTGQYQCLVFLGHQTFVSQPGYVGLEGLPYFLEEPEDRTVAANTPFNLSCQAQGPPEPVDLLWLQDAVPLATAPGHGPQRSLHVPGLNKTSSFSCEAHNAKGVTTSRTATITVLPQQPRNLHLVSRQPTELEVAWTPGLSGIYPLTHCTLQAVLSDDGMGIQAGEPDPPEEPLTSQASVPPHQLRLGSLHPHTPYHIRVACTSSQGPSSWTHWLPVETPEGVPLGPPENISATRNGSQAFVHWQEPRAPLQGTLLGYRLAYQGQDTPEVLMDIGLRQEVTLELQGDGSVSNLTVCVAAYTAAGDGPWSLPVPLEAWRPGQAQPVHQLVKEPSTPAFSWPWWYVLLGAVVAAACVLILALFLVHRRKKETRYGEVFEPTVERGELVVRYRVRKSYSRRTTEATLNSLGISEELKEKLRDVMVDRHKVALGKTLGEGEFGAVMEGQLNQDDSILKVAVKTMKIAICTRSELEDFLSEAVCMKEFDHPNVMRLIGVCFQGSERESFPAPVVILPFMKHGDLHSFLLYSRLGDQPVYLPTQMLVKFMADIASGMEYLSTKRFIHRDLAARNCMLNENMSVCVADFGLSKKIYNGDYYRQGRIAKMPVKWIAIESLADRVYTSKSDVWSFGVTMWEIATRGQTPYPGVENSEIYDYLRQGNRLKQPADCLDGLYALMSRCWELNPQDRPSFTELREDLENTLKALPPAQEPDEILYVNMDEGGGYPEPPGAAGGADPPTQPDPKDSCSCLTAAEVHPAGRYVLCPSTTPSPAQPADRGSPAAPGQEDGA
Protocol: A phosphorylated Axl (hereinafter pAxl) inhibitory test was performed using the human non-small-cell lung cancer-derived cell strain NCI-H1299.
On the following day, the medium was removed, 100 μl of fresh medium were added, and the cells were cultured at 37° C. in the presence of 5% CO2 for one day.
The test compound was dissolved in DMSO and diluted with medium to prepare a sample solution (DMSO concentration: 2%). Twenty-five microliters of medium or sample-added medium was added to each well (DMSO concentration: 0.4%), and the plate was incubated at 37° C. in the presence of 5% CO2 for one hour.
After stirring, the plate was incubated at 37° C. in the presence of 5% CO2 for 10 minutes.
The supernatant was discarded, and 0.1 ml of a 37% formalin solution diluted to 4% with phosphate buffer (PBS) (hereinafter “4% formalin solution”) was added to each well. The plate was allowed to stand at room temperature for 10 minutes.
Next, the 4% formalin solution was discarded, and 0.2 ml of a solution of Triton X-100 diluted to 0.1% with PBS (hereinafter “wash buffer”) was added. The wash buffer was discarded using a decanter, and excess moisture in the plate was removed on a paper towel.
Subsequently, […] NaN3 and H2O2 were added to the wash buffer at 0.1% (hereinafter “quenching buffer”), and 0.1 ml of the quenching buffer was added to each well. The plate was allowed to stand at room temperature for 15 minutes.
The quenching buffer was discarded, and 0.2 ml of wash buffer was added. The wash buffer was discarded using a decanter, and excess moisture in the plate was removed on a paper towel.
Skim milk (Nacalai Tesque) was added to the wash buffer at a final concentration of 5% (hereinafter “blocking buffer”), and 0.25 ml of the blocking buffer was added to each well. The plate was allowed to stand at room temperature for one hour.
After light stirring, the plate was incubated for 20 minutes. Luminescence was then measured by ARVO sx (PerkinElmer), and the pAxl (Y702) level was measured.
pAxl Inhibitory activity was determined by the following formula. Inhibition %=100−(A−B)×100/(T−B)
A: Measurement of the test compound
T: Luminescence value of the reaction solution with a compound not added

[2] = target: T2, AXL (fusion protein of amino acids 464-885 of the intracellular domain of human AXL with glutathione transferase) (Homo sapiens, UniProt P30530); experiment: Cell-Free Axl Kinase Inhibitory Activity
T2 sequence (P30530 464-885 isoform P30530-2): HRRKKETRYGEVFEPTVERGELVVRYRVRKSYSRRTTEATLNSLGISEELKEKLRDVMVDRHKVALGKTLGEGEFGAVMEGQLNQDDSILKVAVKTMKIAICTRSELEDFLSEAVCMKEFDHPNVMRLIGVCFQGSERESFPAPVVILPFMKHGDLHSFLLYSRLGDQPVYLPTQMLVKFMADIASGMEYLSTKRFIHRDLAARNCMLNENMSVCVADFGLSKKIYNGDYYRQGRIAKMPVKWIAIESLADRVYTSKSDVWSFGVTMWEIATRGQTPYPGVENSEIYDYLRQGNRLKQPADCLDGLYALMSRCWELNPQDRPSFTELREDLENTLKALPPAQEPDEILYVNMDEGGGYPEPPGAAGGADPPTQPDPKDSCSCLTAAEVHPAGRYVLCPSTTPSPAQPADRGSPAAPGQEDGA
Protocol: Next, the test compound was diluted with DMSO, and 1 μl of this diluted solution was added to each well.
Five microliters of this solution were added to each well to initiate a kinase reaction. The plate was incubated at 28° C. for 1.5 hours, and 40 μl of a termination buffer (100 mM HEPES (pH 7.4), 0.015% Brij-35, 40 mM EDTA, 0.1% Coating Reagent 3) was added to each well to terminate the reaction.
The substrate peptide and the phosphorylated peptide in the reaction solution were separated and quantified by EZ Reader II (Caliper Life Sciences).
IC50 was determined from inhibition data for 12 test compound concentrations by nonlinear regression (four-parameter logistic regression) using the following formula.

SMILES | IC50 [1] [nM] | IC50 [2] [nM]
COc1ccc(-c2cnc(N)c(-c3ccc(NC(=O)c4cn(CCOC5CCCCO5)cc(-c5ccc(F)cc5)c4=O)cc3)c2)cc1OC (racemic) [Example 6, N-{4-[2-Amino-5-(3,4-dimethoxyphenyl)pyridin-3-yl]phenyl}-5-(4-fluorophenyl)-4-oxo-1-[2-(tetrahydro-2H-pyran-2-yloxy)ethyl]-1,4-dihydropyridine-3-carboxamide] | 100 to 500 | 1 to 10
COc1ccc(-c2cnc(N)c(-c3ccc(NC(=O)c4c[nH]cc(-c5ccc(F)cc5)c4=O)cc3)c2)cc1OC [Example 1, N-{4-[2-Amino-5-(3,4-dimethoxyphenyl)pyridin-3-yl]phenyl}-5-(4-fluorophenyl)-4-oxo-1,4-dihydropyridine-3-carboxamide] | 50 to 100 | 1 to 10
COc1ccc(-c2cnc(N)c(-c3ccc(NC(=O)c4cn(C[C@H]5COCCO5)cc(-c5ccc(F)cc5)c4=O)cc3)c2)cc1OC [Example 14, N-{4-[2-Amino-5-(3,4-dimethoxyphenyl)pyridin-3-yl]phenyl}-1-[(2S)-1,4-dioxan-2-ylmethyl]-5-(4-fluorophenyl)-4-oxo-1,4-dihydropyridine-3-carboxamide] | 50 to 100 | 1 to 10
COc1ccc(-c2cnc(N)c(-c3ccc(NC(=O)c4cn(CC(F)(F)F)cc(-c5cccc(F)c5)c4=O)cc3)c2)cc1OC [Example 22, N-{4-[2-Amino-5-(3,4-dimethoxyphenyl)pyridin-3-yl]phenyl}-5-(3-fluorophenyl)-4-oxo-1-(2,2,2-trifluoroethyl)-1,4-dihydropyridine-3-carboxamide] | 50 to 100 | 1 to 10
Nc1ncc(-c2ccccc2)cc1-c1ccc(NC(=O)c2cn(CC(F)(F)F)cc(-c3ccc(F)cc3)c2=O)cc1 [Example 31, N-[4-(2-Amino-5-phenylpyridin-3-yl)phenyl]-5-(4-fluorophenyl)-4-oxo-1-(2,2,2-trifluoroethyl)-1,4-dihydropyridine-3-carboxamide] | 100 to 500 | 1 to 10
Nc1ncc(-c2cccc(Cl)c2)cc1-c1ccc(NC(=O)c2cn(CC(F)(F)F)cc(-c3ccc(F)cc3)c2=O)cc1 [Example 36, N-{4-[2-Amino-5-(3-chlorophenyl)pyridin-3-yl]phenyl}-5-(4-fluorophenyl)-4-oxo-1-(2,2,2-trifluoroethyl)-1,4-dihydropyridine-3-carboxamide] | 100 to 500 | 10 to 20
CCN(CC)CCn1cc(C(=O)Nc2ccc(-c3cc(-c4cnn(C[C@H]5COCCO5)c4)cnc3N)cc2)c(=O)c(-c2ccc(F)cc2)c1 [Example 69, N-[4-(2-Amino-5-{1-[(2S)-1,4-dioxan-2-ylmethyl]-1H-pyrazol-4-yl}pyridin-3-yl)phenyl]-1-[2-(diethylamino)ethyl]-5-(4-fluorophenyl)-4-oxo-1,4-dihydropyridine-3-carboxamide] | 100 to 500 | 1 to 10
COC1CN(C(=O)c2cn(Cc3ccc(F)cc3)cc(C(=O)Nc3ccc(-c4cc(-c5cnn(C[C@H]6COCCO6)c5)cnc4N)cc3)c2=O)C1 [Example 72, N-[4-(2-Amino-5-{1-[(2S)-1,4-dioxan-2-ylmethyl]-1H-pyrazol-4-yl}pyridin-3-yl)phenyl]-1-(4-fluorobenzyl)-5-[(3-methoxyazetidin-1-yl)carbonyl]-4-oxo-1,4-dihydropyridine-3-carboxamide] | 50 to 100 | 1 to 10
CN1CC=C(c2cnc(N)c(-c3ccc(NC(=O)c4cn(CC(F)(F)F)cc(-c5ccc(F)cc5)c4=O)cc3)c2)CC1 [Example 79, N-[4-(6-Amino-1′-methyl-1′,2′,3′,6′-tetrahydro-3,4′-bipyridin-5-yl)phenyl]-5-(4-fluorophenyl)-4-oxo-1-(2,2,2-trifluoroethyl)-1,4-dihydropyridine-3-carboxamide] | 50 to 100 | 1 to 10

Continued, values first:

IC50 [1] [nM] | IC50 [2] [nM] | SMILES
50 to 100 | 1 to 10 | COc1ccc(-c2cnc(N)c(-c3ccc(NC(=O)c4cn(CCO)cc(-c5ccc(F)cc5)c4=O)cc3)c2)cc1OC [Example 7, N-{4-[2-Amino-5-(3,4-dimethoxyphenyl)pyridin-3-yl]phenyl}-5-(4-fluorophenyl)-1-(2-hydroxyethyl)-4-oxo-1,4-dihydropyridine-3-carboxamide]
50 to 100 | 1 to 10 | CCn1cc(C(=O)Nc2ccc(-c3cc(-c4ccc(OC)c(OC)c4)cnc3N)cc2)c(=O)c(-c2ccccc2)c1 [Example 18, N-{4-[2-Amino-5-(3,4-dimethoxyphenyl)pyridin-3-yl]phenyl}-1-ethyl-4-oxo-5-phenyl-1,4-dihydropyridine-3-carboxamide]
50 to 100 | 1 to 10 | COc1ccc(-c2cnc(N)c(-c3ccc(NC(=O)c4cn(CC(F)(F)F)cc(-c5ccc(F)cc5)c4=O)cc3C)c2)cc1OC [Example 30, N-{4-[2-Amino-5-(3,4-dimethoxyphenyl)pyridin-3-yl]-3-methylphenyl}-5-(4-fluorophenyl)-4-oxo-1-(2,2,2-trifluoroethyl)-1,4-dihydropyridine-3-carboxamide]
100 to 500 | 10 to 20 | COc1ccc(-c2cnc(N)c(-c3ccc(NC(=O)c4cn(CC(F)(F)F)cc(-c5ccc(F)cc5)c4=O)cc3)c2)cc1 [Example 32, N-{4-[2-Amino-5-(4-methoxyphenyl)pyridin-3-yl]phenyl}-5-(4-fluorophenyl)-4-oxo-1-(2,2,2-trifluoroethyl)-1,4-dihydropyridine-3-carboxamide]
50 to 100 | 1 to 10 | COc1cccc(-c2cnc(N)c(-c3ccc(NC(=O)c4cn(CC(F)(F)F)cc(-c5ccc(F)cc5)c4=O)cc3)c2)c1 [Example 33, N-{4-[2-Amino-5-(3-methoxyphenyl)pyridin-3-yl]phenyl}-5-(4-fluorophenyl)-4-oxo-1-(2,2,2-trifluoroethyl)-1,4-dihydropyridine-3-carboxamide]
100 to 500 | 10 to 20 | Cc1ccc(-c2cnc(N)c(-c3ccc(NC(=O)c4cn(CC(F)(F)F)cc(-c5ccc(F)cc5)c4=O)cc3)c2)cc1 [Example 35, N-{4-[2-Amino-5-(4-methylphenyl)pyridin-3-yl]phenyl}-5-(4-fluorophenyl)-4-oxo-1-(2,2,2-trifluoroethyl)-1,4-dihydropyridine-3-carboxamide]
100 to 500 | 10 to 20 | CC(C)(O)Cn1cc(C(=O)Nc2ccc(-c3cc(-c4cnn(C[C@H]5COCCO5)c4)cnc3N)cc2)c(=O)c(-c2ccc(F)cc2)c1 [Example 68, N-[4-(2-Amino-5-{1-[(2S)-1,4-dioxan-2-ylmethyl]-1H-pyrazol-4-yl}pyridin-3-yl)phenyl]-5-(4-fluorophenyl)-1-(2-hydroxy-2-methylpropyl)-4-oxo-1,4-dihydropyridine-3-carboxamide]

Source: US8933103B2, “Pyridone derivatives” (Daiichi Sankyo Company, Limited, priority 2012, dated 2015)
